We go through 14 compounds from ChEMBL document CHEMBL4725409, “Understanding and Improving the Membrane Permeability of VH032-Based PROTACs” (ACS Med Chem Lett, 2020).

The first data set can be described thus: Permeability of the compound in phosphate buffer containing 5% DMSO at pH 7.4 incubated for 15 hrs by PAMPA based LC/MS analysis. In kind it is ADME. Particulars: pH 7.4, 15 h. On the technique in general: The PAMPA barrier holds no transporters, so it reflects passive diffusion.
`Cc1ncsc1-c1ccc(CNC(=O)[C@@H]2C[C@@H](O)CN2C(=O)[C@@H](NC(=O)COCCOCCOCCOCCOCCOCC(=O)N[C@H](C(=O)N2C[C@H](O)C[C@H]2C(=O)NCc2ccc(-c3scnc3C)cc2)C(C)(C)C)C(C)(C)C)cc1`: the Peff is given as 0.005 10^-6 cm/s.
For `Cc1ncsc1-c1ccc(CNC(=O)[C@@H]2C[C@@H](O)CN2C(=O)[C@@H](NC(=O)COCCOCCOCCOCC(=O)N[C@H](C(=O)N2C[C@H](O)C[C@H]2C(=O)NCc2ccc(-c3scnc3C)cc2)C(C)(C)C)C(C)(C)C)cc1`, the Peff is reported as 0.009 10^-6 cm/s.

The nature of the next data set: Partition coefficient, logD of the compound in 1,9-decadiene and phosphate buffer at pH 7.4 measured after 30 mins under shaking condition by LC-MS analysis.
Details: not given
In kind it is physicochemical.
Compound `Cc1ncsc1-c1ccc(CNC(=O)[C@@H]2C[C@@H](O)CN2C(=O)[C@@H](NC(=O)COCCOCCOCCOCCOCCOCC(=O)N[C@H](C(=O)N2C[C@H](O)C[C@H]2C(=O)NCc2ccc(-c3scnc3C)cc2)C(C)(C)C)C(C)(C)C)cc1` had a logD hydrocarbon water at 0.5 h of -4.3.
In turn, `CC(=O)N1c2ccc(-c3ccc(C(=O)NCCOCCOCC(=O)N[C@H](C(=O)N4C[C@H](O)C[C@H]4C(=O)NCc4ccc(-c5scnc5C)cc4)C(C)(C)C)cc3)cc2[C@H](Nc2ccc(Cl)cc2)C[C@@H]1C` registered a logD hydrocarbon water at 0.5 h of -0.7.
Still for that read-out and setting: with `Cc1ncsc1-c1ccc(CNC(=O)[C@@H]2C[C@@H](O)CN2C(=O)[C@@H](NC(=O)COCCOCCOCCNC(=O)C[C@@H]2N=C(c3ccc(Cl)cc3)c3c(sc(C)c3C)-n3c(C)nnc32)C(C)(C)C)cc1` the figure was -1.6.
The same measure, in the same setting: next, `Cc1ncsc1-c1ccc(CNC(=O)[C@@H]2C[C@@H](O)CN2C(=O)[C@@H](NC(=O)[C@H](Cc2ccccc2)NC(=O)COCCOCCOCCNC(=O)C[C@@H]2N=C(c3ccc(Cl)cc3)c3c(sc(C)c3C)-n3c(C)nnc32)C(C)(C)C)cc1`: -1.6.
The compound `CC(=O)N[C@H](C(=O)N1C[C@H](O)C[C@H]1C(=O)NCc1ccc(-c2scnc2C)cc1)C(C)(C)SCCCCNC(=O)C[C@@H]1N=C(c2ccc(Cl)cc2)c2c(sc(C)c2C)-n2c(C)nnc21` yielded a logD hydrocarbon water at 0.5 h of -3.8.
Take `CC(=O)N[C@H](C(=O)N1C[C@H](O)C[C@H]1C(=O)NCc1ccc(-c2scnc2C)cc1)C(C)(C)SCCOCCOCCNC(=O)C[C@@H]1N=C(c2ccc(Cl)cc2)c2c(sc(C)c2C)-n2c(C)nnc21`: the logD hydrocarbon water at 0.5 h was -4.3.
The compound `Cc1ncsc1-c1ccc(CNC(=O)[C@@H]2C[C@H](O)CN2C(=O)[C@@H](NC(=O)COCCOCCOCCOCCOCCOCC(=O)N[C@H](C(=O)N2C[C@@H](O)C[C@H]2C(=O)NCc2ccc(-c3scnc3C)cc2)C(C)(C)C)C(C)(C)C)cc1` came in with a logD hydrocarbon water at 0.5 h of -3.2.
`CC(=O)N1c2ccc(-c3ccc(C(=O)NCCOCCOCCOCCOCC(=O)N[C@H](C(=O)N4C[C@H](O)C[C@H]4C(=O)NCc4ccc(-c5scnc5C)cc4)C(C)(C)C)cc3)cc2[C@H](Nc2ccc(Cl)cc2)C[C@@H]1C`: the logD hydrocarbon water at 0.5 h was -0.7.
With `Cc1ncsc1-c1ccc(CNC(=O)[C@@H]2C[C@@H](O)CN2C(=O)[C@@H](OC(=O)CCOCCOCCOCCNC(=O)Cc2ccccc2)C(C)(C)C)cc1`, the logD hydrocarbon water at 0.5 h is -1.6.
Compound `Cc1ncsc1-c1ccc(CNC(=O)[C@@H]2C[C@@H](O)CN2C(=O)[C@@H](NC(=O)COCCOCCOCCOCC(=O)N[C@H](C(=O)N2C[C@H](O)C[C@H]2C(=O)NCc2ccc(-c3scnc3C)cc2)C(C)(C)C)C(C)(C)C)cc1` yielded a logD hydrocarbon water at 0.5 h of -3.8.
Take `Cc1ncsc1-c1ccc(CNC(=O)[C@@H]2C[C@@H](O)CN2C(=O)[C@@H](NC(=O)CCOCCOCCOCCNC(=O)Cc2ccccc2)C(C)(C)C)cc1`: the logD hydrocarbon water at 0.5 h was -2.2.
The compound `Cc1ncsc1-c1ccc(CNC(=O)[C@@H]2C[C@@H](O)CN2C(=O)[C@@H](NC(=O)Cc2ccccc2)C(C)(C)C)cc1` came in with a logD hydrocarbon water at 0.5 h of -0.7.
Consider `CC(=O)N[C@H](C(=O)N1C[C@H](O)C[C@H]1C(=O)NCc1ccc(-c2scnc2C)cc1)C(C)(C)SCCOCCNC(=O)C[C@@H]1N=C(c2ccc(Cl)cc2)c2c(sc(C)c2C)-n2c(C)nnc21`, for which the logD hydrocarbon water at 0.5 h was -3.8.
With `Cc1ncsc1-c1ccc(CNC(=O)[C@@H]2C[C@@H](O)CN2C(=O)[C@@H](NC(=O)COCCOCCNC(=O)C[C@@H]2N=C(c3ccc(Cl)cc3)c3c(sc(C)c3C)-n3c(C)nnc32)C(C)(C)C)cc1`, the logD hydrocarbon water at 0.5 h is -1.1.
